Values quoted from earlier work as cited in patent US20230082651A1, “STABLE AQUEOUS COMPOSITIONS OF PLANTS EXTRACTS AND METHODS OF MAKING THE SAME” (Nulixir Inc., priority 2021, published 2023).

Details: as a function of water content

| Compound | solubility in ethanol |
| --- | --- |
| COc1ccc2cc3[n+](cc2c1OC)CCc1cc2c(cc1-3)OCO2 [berberine] | decreases rapidly with water content |

Details: water and n-octanol; categorization at pH=7 unless stated otherwise

| Compound | log P |
| --- | --- |
| COC1=CC(=O)OC(/C=C/c2ccc(OC)cc2)C1 (stereo not drawn) [5,6-dihydroyangonin] | ~2.5 |
| CC1=C(CO)C(=O)O[C@@H]([C@@H](C)[C@H]2CC[C@H]3[C@@H]4C[C@H](Cl)[C@]5(O)[C@@H](O)C=CC(=O)[C@]5(C)[C@H]4CC[C@]23C)C1 [6a-chloro-5b-hydroxywithaferin A] | ~3.2 |
| COC1=CC(=O)O[C@@H](CCc2ccc3c(c2)OCO3)C1 [7,8-dihydromethysticin] | ~2.2 |
| COc1ccc(CCc2cc(OC)cc(=O)o2)cc1 [7,8-dihydroyangonin] | ~2.9 |
| COc1cc(/C=C\c2ccc(OC)c(O)c2)oc(=O)c1 [11-hydroxyyangonin] | ~2.2 |
| COc1cc2c(c(OC)c1OC)-c1c(cc(OC)c(OC)c1OC)C[C@](C)(O)[C@@H](C)C2 [(+)-schisandrin] | ~5 |
| COc1cc2c(c(OC)c1OC)-c1c(cc(OC)c(OC)c1OC)C[C@H](C)[C@H](C)C2 [(−)-schisandrin A] | ~3.6 |
| COc1c2c(cc3c1-c1c(cc4c(c1OC)OCO4)C[C@H](C)[C@H](C)C3)OCO2 [(−)-schisandrin C] | ~3.5 |
| CC(C)=C[C@@H]1CO[C@]23C[C@]4(CO2)[C@H](CC[C@@H]2[C@@]5(C)CC[C@H](O[C@@H]6OC[C@H](O)[C@H](O[C@@H]7O[C@H](CO)[C@@H](O)[C@H](O)[C@H]7O)[C@H]6O[C@@H]6O[C@@H](CO)[C@H](O)[C@H]6O)C(C)(C)[C@@H]5CC[C@]24C)[C@H]3[C@@]1(C)O [bacopasaponin C] | ~2 |
| CC(C)=C[C@H]1C[C@](C)(O)[C@@H]2[C@H]3CC[C@@H]4[C@@]5(C)CC[C@H](O[C@@H]6OC[C@H](O)[C@H](O[C@@H]7O[C@H](CO)[C@@H](O)[C@H](O)[C@H]7O)[C@H]6O[C@@H]6O[C@@H](CO)[C@H](O)[C@H]6O)C(C)(C)[C@@H]5CC[C@@]4(C)[C@@]34CO[C@@]2(C4)O1 [bacopaside X] | ~2.2 |
| CC(C)=C[C@H]1C[C@](C)(O)[C@H]2[C@H]3CC[C@@H]4[C@@]5(C)CC[C@H](O[C@@H]6O[C@H](CO)[C@@H](O)[C@H](O[C@@H]7O[C@H](CO)[C@@H](O)[C@H](O)[C@H]7O)[C@H]6O[C@@H]6O[C@@H](CO)[C@H](O)[C@H]6O)C(C)(C)[C@@H]5CC[C@@]4(C)[C@@]34CO[C@@]2(C4)O1 [bacoside A3] | ~2.1 |
| CC(C)=CCC[C@](C)(O[C@@H]1O[C@H](CO[C@@H]2O[C@H](CO)[C@@H](O)[C@H](O)[C@H]2O)[C@@H](O)[C@H](O)[C@H]1O)[C@H]1CC[C@]2(C)[C@@H]1[C@H](O)C[C@@H]1[C@@]3(C)CC[C@H](O[C@@H]4O[C@H](CO)[C@@H](O)[C@H](O)[C@H]4O[C@@H]4O[C@H](CO)[C@@H](O)[C@H](O)[C@H]4O)C(C)(C)[C@@H]3CC[C@]12C [ginsenoside rb1] | ~−1 |
| CC(C)=CCC[C@](C)(O[C@@H]1O[C@H](CO)[C@@H](O)[C@H](O)[C@H]1O)[C@H]1CC[C@]2(C)[C@@H]1[C@H](O)C[C@@H]1[C@@]3(C)CC[C@H](O)C(C)(C)[C@@H]3[C@@H](O[C@@H]3O[C@H](CO)[C@@H](O)[C@H](O)[C@H]3O)C[C@]12C [ginsenoside rgl] | ~0.8 |
| COc1ccc(C23C=CC(O)CC2N(C)CC3)cc1OC (stereo not drawn) [mesembrenol] | ~2.4 |
| COc1ccc([C@@]23C=CC(=O)C[C@@H]2N(C)CC3)cc1OC [mesembrenone] | ~1.3 |
| COc1ccc([C@@]23CCC(=O)C[C@@H]2N(C)CC3)cc1OC [mesembrine] | ~1.5 |
| COc1nc2c(c(=O)n1C)n(C)c(=O)n2C [methylliberine] | ~−0.083 |
| CC(=O)OC1C=CC(=O)N(C(=O)CCc2ccccc2)C1 (stereo not drawn) [pipermethystine] | ~1.8 |
| COc1cc([C@H]2Oc3cc(O)c4c(=O)c(O)c(-c5ccc(O)cc5)oc4c3O[C@@H]2CO)ccc1O [rhodiolin] | ~2 |
| N#C[C@@]1(O[C@@H]2O[C@H](CO)[C@@H](O)[C@H](O)[C@H]2O)C=C[C@@H](O)C1 [tetraphyllin B] | ~−2.5 |
| (R)-kawain | ~2.7 |
| bacopaside B | ~2.8 |
| hericerin | ~6.4 |
| herinacine A | ~2.5 |
| schisandroside C | ~1.6 |
| tortuosomine | ~3 |
